According to patent publication US5880146A, “Inhibition of IL-12-induced IFN-γ synthesis by specific bis-phenol compounds as a method of immune modulation” (Fuji ImmunoPharmaceuticals Corporation, priority 1995, dated 1999):
Entries after “also recorded” stand apart in the source; their conditions may differ.

Key:
[1] = system: IL-12 induction of IFN-γ in PHA-activated human PBMC; experiment: Screening assay for compounds which inhibit IL-12 induction of IFN-γ (ELISA); format: cell-based; details: 5 μg/ml, IL-2 25 U/ml + IL-12 0.5 ng/ml, 48 hr, single test, read-out: % INH of IFNγ
Method: Human peripheral blood monocytes (PBMC) were obtained from commercial sources as a leukophoresis from a healthy volunteer and were purified by centrifugation on a Ficoll-Hypaque (Pharmacia) gradient (1700 rpm for 20 min). The "buffy" coat containing the PBMC was diluted with serum-free culture medium (SF-RPMI) to a volume of 50 ml and collected by centrifugation at 1500 rpm for 5 min. Cells were resuspended in cell culture medium containing 10% fetal bovine serum (RPMI-10) and phytohemaglutinin (PHA - 10 μg/ml) at a density of 5×10^6 cells/ml and were cultured for 3 days at 37° C. in a humidified CO2 incubator. The PHA-activated cells were collected by centrifugation, washed three times with an equal volume of SF-RPMI and resuspended in fresh RPMI-10 (1×10^6 cells /ml). Aliquots (100 μl) were dispensed into the wells of multiple 96-well plates to give a final cell number of 10^5 per well. Test compounds, dissolved in dimethyl sulfoxide (DMSO) at 1 mg/ml, were first diluted in culture medium to an intermediate concentration of 20 μg/ml and then were added (50 μwell) to a specific well of the plate for each compound. Stimulation medium (50 μl/well) containing 10% serum, IL-2 and IL-12 was added to final concentrations of 25 U/ml and 0.5 ng/ml, respectively. Control wells receive no IL-2 or IL-12 (negative control) or received both interleukins but no test compound (positive control). The plates were incubated for 48 hr at 37° C. in a CO2 incubator at which time aliquots (20 μl) were removed for analysis of IFN-γ concentration by ELISA. A quantitative ELISA was developed by coating 96-well plates with an mouse monoclonal antibody against human IFN-γ, 1 μg/ml in phosphate buffered saline (PBS) (Pestka Biological Laboratories), overnight at 4° C. Unbound antibody was washed off by washing three times with PBS. Non-specific antibody binding was blocked with a solution of 1% bovine serum albumin (BSA) and 1% goat serum in PBS (150 μl/well) which was incubated for 2 hr at 37° C. After washing the blocked plates four times with PBS, test samples and dilutions of the IFN-γ standard are added in a final volume of 100 μl/well. Following an overnight incubation at 4° C., the plates are washed four times with PBS, and a polyclonal rabbit antiserum against human IFN-γ (1/10000 dilution--Petska Biological Laboratories) is added. After an additional incubation for 1 hr at 37° C. and four washes with PBS, a polyclonal donkey anti-rabbit detecting antibody, conjugated to horseradish peroxidase (1/700 dilution--Petska Biological Laboratories) is added for 1 hr at 37° C. The plates are then washed four times with PBS and 100 μl of K-blue substrate E(ILISA Technologies, Neogen Corp.) is added until the color in the wells containing the standard curve is sufficiently developed, at which time 100 μl of "Red-stop" solution (ELISA Technologies) is added. The absorbance of the solution within each well of the plate is then read at 650 nm using an ELISA plate reader (Dynatech MR7000). The amount of IFN-γ is calculated by comparing the optical density of the test sample with a standard curve derived from the dilutions of the control IFN-y. The amount of IFN-γ that is induced in the presence of both IL-2 and IL-12 generally ranges from 1200-2000 pg/ml while the amount produced in the absence of IL-12 is generally less than 50 pg/ml. Experimental data are shown in Table 2 which discloses a) the percent inhibition of IFNγ production, relative to a […], when the cells have been treated with a bis-compound at a final concentration of 5 μg/ml of the listed bis-compound (%INH or IFNγ) and b) the percent of cells which are viable after the treatment with 5 μg/ml of the various bis-compounds, determined by adding MTS to the media (% Viability). MTS is a chemical chromophore that is metabolized in the mitochondria of viable cells to produce a color which increases in intensity in proportion to the numbers of viable cells. […]

[2] = Cell viability (MTS) after treatment with bis-compound; format: cell-based; details: human, pha-activated pbmc, 5 μg/ml
Method: Human peripheral blood monocytes (PBMC) were obtained from commercial sources as a leukophoresis from a healthy volunteer and were purified by centrifugation on a Ficoll-Hypaque (Pharmacia) gradient (1700 rpm for 20 min). The "buffy" coat containing the PBMC was diluted with serum-free culture medium (SF-RPMI) to a volume of 50 ml and collected by centrifugation at 1500 rpm for 5 min. Cells were resuspended in cell culture medium containing 10% fetal bovine serum (RPMI-10) and phytohemaglutinin (PHA - 10 μg/ml) at a density of 5×10^6 cells/ml and were cultured for 3 days at 37° C. in a humidified CO2 incubator. The PHA-activated cells were collected by centrifugation, washed three times with an equal volume of SF-RPMI and resuspended in fresh RPMI-10 (1×10^6 cells /ml). Aliquots (100 μl) were dispensed into the wells of multiple 96-well plates to give a final cell number of 10^5 per well. Test compounds, dissolved in dimethyl sulfoxide (DMSO) at 1 mg/ml, were first diluted in culture medium to an intermediate concentration of 20 μg/ml and then were added (50 μwell) to a specific well of the plate for each compound. Stimulation medium (50 μl/well) containing 10% serum, IL-2 and IL-12 was added to final concentrations of 25 U/ml and 0.5 ng/ml, respectively. Control wells receive no IL-2 or IL-12 (negative control) or received both interleukins but no test compound (positive control). The plates were incubated for 48 hr at 37° C. in a CO2 incubator at which time aliquots (20 μl) were removed for analysis of IFN-γ concentration by ELISA. A quantitative ELISA was developed by coating 96-well plates with an mouse monoclonal antibody against human IFN-γ, 1 μg/ml in phosphate buffered saline (PBS) (Pestka Biological Laboratories), overnight at 4° C. Unbound antibody was washed off by washing three times with PBS. Non-specific antibody binding was blocked with a solution of 1% bovine serum albumin (BSA) and 1% goat serum in PBS (150 μl/well) which was incubated for 2 hr at 37° C. After washing the blocked plates four times with PBS, test samples and dilutions of the IFN-γ standard are added in a final volume of 100 μl/well. Following an overnight incubation at 4° C., the plates are washed four times with PBS, and a polyclonal rabbit antiserum against human IFN-γ (1/10000 dilution--Petska Biological Laboratories) is added. After an additional incubation for 1 hr at 37° C. and four washes with PBS, a polyclonal donkey anti-rabbit detecting antibody, conjugated to horseradish peroxidase (1/700 dilution--Petska Biological Laboratories) is added for 1 hr at 37° C. The plates are then washed four times with PBS and 100 μl of K-blue substrate E(ILISA Technologies, Neogen Corp.) is added until the color in the wells containing the standard curve is sufficiently developed, at which time 100 μl of "Red-stop" solution (ELISA Technologies) is added. The absorbance of the solution within each well of the plate is then read at 650 nm using an ELISA plate reader (Dynatech MR7000). The amount of IFN-γ is calculated by comparing the optical density of the test sample with a standard curve derived from the dilutions of the control IFN-y. […] MTS is a chemical chromophore that is metabolized in the mitochondria of viable cells to produce a color which increases in intensity in proportion to the numbers of viable cells. The absorbance of the cell culture can be compared to control cultures in order to determine the percent viability.

mice = experiment: Toxicity of bis-compounds after single systemic dose; format: in vivo; details: 20% DMSO, 16% cremaphor
[3] = as above; format: in vivo; details: mouse, in vivo, 20% DMSO, 16% cremaphor, single dose

Row | Compound | inhibition at 5 µg/mL [1] [%] | viability [2] [%] | further results
1 | Cc1cc(Cl)cc(Cc2cc(Cl)cc(C)c2O)c1O [Compound 8296] | 103 | 37 | 
2 | Cc1cc(C)c(O)c(C(CCCCCCC(C)C)c2cc(C)cc(C)c2O)c1 [Compound 8302] | 95 | 100 | Results (Dead/Alive) (mice; 100 mg/kg IV, 10 mg/ml): Alive; Results (Dead/Alive) (mice; 150 mg/kg IV, 10 mg/ml): Alive; Results (Dead/Alive) (mice; 200 mg/kg IV, 15 mg/ml): Alive 1; also recorded: Dead 1; LD50 ([3]; iv, conc. sol. 10 mg/ml): > 150 mg/kg; LD50 ([3]; iv, conc. sol. 15 mg/ml): 200 mg/kg
3 | Cc1cc(C)c(O)c(Cc2cc(C)cc(C)c2O)c1 [Compound 51850] | 77 | 97 | Results (Dead/Alive) (mice; 100 mg/kg IV, 10 mg/ml): Alive; Results (Dead/Alive) (mice; 150 mg/kg IV, 10 mg/ml): Alive; LD50 ([3]; iv, conc. sol. 10 mg/ml): > 150 mg/kg
4 | CCCC(c1cc(C)cc(C)c1O)c1cc(C)cc(C)c1O [Compound 51851] | 86 | 107 | 
5 | CC(C)(C)c1cc2c(cc1O)C(C)(C)c1cc(O)c(C(C)(C)C)cc1O2 [Compound 53433] | 97 | 26 | 
6 | CC(C)(C)CC(C)(C)c1cc2c(cc1O)C(C)(C)c1cc(O)c(C(C)(C)CC(C)(C)C)cc1O2 [Compound 53437] | 74 | 85 | 
7 | Cc1cc(C(c2cc(C)c(O)c(C)c2)c2ccc(O)c(O)c2)cc(C)c1O [Compound 54004] | -37 | 99 | 
8 | Cc1cc(C(C)c2cc(C)cc(C(C)(C)C)c2O)c(O)c(C(C)(C)C)c1 [Compound 54005] | 96 | 30 | 
9 | Cc1cc(O)c(C(C)C)cc1C(c1ccccc1)c1cc(C(C)C)c(O)cc1C [Compound 54007] | 95 | 26 | 
10 | CCC(c1cc(C)cc(C(C)(C)C)c1O)c1cc(C)cc(C(C)(C)C)c1O [Compound 54008] | 91 | 69 | 
11 | Cc1cc(C(c2ccc(Cl)cc2)c2cc(C)c(O)c(C)c2)cc(C)c1O [Compound 54042] | 28 | 102 | 
12 | Cc1cc(C(C)(C)c2cc(C)c(O)c(C)c2)cc(C)c1O [Compound 54046] |  | 95 | Results (Dead/Alive) (mice; 100 mg/kg IV, 10 mg/ml): Alive; Results (Dead/Alive) (mice; 150 mg/kg IV, 10 mg/ml): Alive; LD50 ([3]; IV, conc. sol. 10 mg/ml): > 150 mg/kg
13 | Cc1cc(C2(c3ccc(O)c(C)c3)CCCCC2)ccc1O [Compound 54048] | 68 | 79 | 
14 | Cc1cc(C(c2ccc(C(=O)O)cc2)c2cc(C)c(O)c(C)c2)cc(C)c1O [Compound 54050] | 63 | 86 | 
15 | Cc1cc(C(c2ccc([N+](=O)[O-])cc2)c2cc(C)c(O)c(C(C)(C)C)c2)cc(C(C)(C)C)c1O [Compound 54053] | 93 | 33 | 
16 | Cc1cc(C(C)c2cc(C)c(O)c(C(C)(C)C)c2)cc(C(C)(C)C)c1O [Compound 54054] | 98 | 27 | 
17 | CC(C)(C)c1cc(C(c2ccc(C(=O)O)cc2)c2cc(C(C)(C)C)c(O)c(C(C)(C)C)c2)cc(C(C)(C)C)c1O [Compound 54055] | 83 | 88 | 
18 | CCC(C)(c1cc(C)c(O)c(C)c1)c1cc(C)c(O)c(C)c1 [Compound 54056] | 84 | 87 | 
19 | Cc1cc(C(c2ccccc2)c2cc(C)c(O)c(C(C)(C)C)c2)cc(C(C)(C)C)c1O [Compound 54058] | 88 | 86 | 
20 | CCCCCCC(C)(c1ccc(O)cc1)c1ccc(O)c(C)c1 (stereo not drawn) [Compound 54059] | 64 | 88 | 
21 | CCCC(C)(c1ccc(O)cc1)c1ccc(O)c(C)c1 (stereo not drawn) [Compound 54063] |  | 93 | 
22 | CCCCCCC(C)(c1ccc(O)c(C)c1)c1ccc(O)c(C)c1 [Compound 54094] |  | 25 | 
23 | CCCC(CCC)(c1ccc(O)cc1)c1ccc(O)c(C)c1 [Compound 54099] |  | 93 | 
24 | CCC(c1cc(C)c(O)c(C(C)C)c1)c1cc(C)c(O)c(C(C)C)c1 [Compound 54109] | 93 | 33 | 
25 | Cc1cc(C(c2ccc(C(C)C)cc2)c2cc(C)c(O)c(C)c2)cc(C)c1O [Compound 54114] | 65 | 96 | 
26 | Cc1cc(C(c2ccc(C(=O)O)cc2)c2cc(C)c(O)c(C(C)(C)C)c2)cc(C(C)(C)C)c1O [Compound 54346] | 91 | 84 | 
27 | CCC(c1cc(C)c(O)c(C)c1)c1cc(C)c(O)c(C)c1 [Compound 54471] | 89 | 83 | 
28 | CCC(c1cc(C)c(O)c(C(C)(C)C)c1)c1cc(C)c(O)c(C(C)(C)C)c1 [Compound 54472] | 98 | 26 | 
